Data from patent US20110152267A1, “Compositions and Methods for Treating Hyperproliferative Disorders” (Texas Tech University System, priority 2009, published 2011).

How the values were obtained:
[1] = system: CRL-2076 normal human fibroblast cell line; experiment: DIMSCAN cytotoxicity, fenretinide + L-threo-sphinganines 3:1 (Example B1); type: cell-based; conditions: CRL-2076, 20% O2, 96 h
Protocol: (§1) Cytotoxicity Assay—Once again, cytotoxicity is determined using the DIMSCAN assay system (R. Proffitt et al., Cytometry 24, 204-213 (1996); T. Frgala et al., Mol Cancer Ther. 6:886-97, 2007). The system employs digital imaging microscopy to quantify viable cells, which selectively accumulate fluorescein diacetate to become brightly fluorescent. The system is capable of measuring cytotoxicity over a 4-5 log dynamic range by quenching the residual fluorescence of dead and dying cells with eosin Y and quantifying the total fluorescence of viable cells using digital thresholding. Measured fluorescence is directly proportionate to the number of viable cells. A comparison of the total fluorescence of a drug-treated cell population to the fluorescence of a similar number of untreated cells yields a survival fraction. In brief, 2000 to 10,000 cells/well (depending on size and growth rates) are replicate plated into 60 wells of a 96-well tissue culture plate in 0.1 mL of whole medium and allowed to attach overnight. Drug(s) are then added in 0.05 mL of whole medium to the final concentrations indicated. Drugs (fenretinide, and various chain length L-threo-sphinganines) were tested both as single agents and in a 3:1 ratio of fenretinide:sphinganine. C18-L-threo-sphinganine, or “safingol,” was also tested and results shown for reference. There are 12 wells treated per drug concentration. Twelve wells receive drug vehicle-only to the appropriate final concentration and serve as controls for the plate. Cells are incubated for 96 hours at 37° C. in ambient air with 5% CO2. Fluorescein diacetate is then added to each well in 0.05 mL media to a final concentration of 8 microgram/mL. Cells are incubated for a further 15 minutes at 37° C. and 0.03 mL of 0.5% eosin Y is added to each well. Total fluorescence of viable cells is then measured by digital imaging microscopy. Results were graphed as the ratio of the fluoresecence of drug-treated wells to non-drug treated control wells (i.e., Survival Fraction). All tests were performed at least twice. Representative results are shown.
(§2) The Combination Index (CI) is a term to describe mathematical modeling of the pharmacologic effects on cytotoxicity (cell death) of two drugs in combination based. Cytotoxic “synergy” is defined as a cell death affect which is greater than would be expected from a simple product of the single agent cytotoxicities alone (i.e. an “additive” effect). By Chou-Talalay analysis, a CI<0.9 on a Fraction Affected (“Fa”, i.e. fraction of cells killed) indicates synergy, with smaller numbers indicating greater synergy; a CI of 0.9-1.1 signifies an additive or near-additive effect; and a CI>1.1 means the drug combination is antagonistic.
(§3) Fenretinide and L-threo-sphinganines tested in normal human fibroblast (normal skin cell) cell lines, CRL-2091 and CRL-2076.

[2] = system: CRL-2091 normal human fibroblast cell line; experiment: as above; type: cell-based; conditions: CRL-2091, 20% O2, 96 h
Protocol: as §1, §2, §3

[3] = system: CHLA-266 primitive neuroectodermal tumor (PNET) cell line; experiment: DIMSCAN cytotoxicity, fenretinide + L-threo-sphinganines 3:1 (Example B9); type: cell-based, human; conditions: 96 h
Protocol: as §1, §2
Fenretinide and L-threo-sphinganines tested in human primitive neuroectodermal tumor (PNET) (brain cancer) cell line, CHLA-266.

[4] = system: MCF-7 breast adenocarcinoma cell line; experiment: DIMSCAN cytotoxicity, fenretinide + L-threo-sphinganines 3:1 (Example B14); type: cell-based, human; conditions: 96 h
Protocol: as §1, §2
Fenretinide and L-threo-sphinganines tested in human breast adenocarcinoma (breast cancer) cell lines, MCF-7 and MDA-MB-231.

[5] = 4-HPR 1.5 μM + L-threo-sphinganine 0.5 μM
[6] = 4-HPR 3 μM + L-threo-sphinganine 1 μM
[7] = 4-HPR 6 μM + L-threo-sphinganine 2 μM
[8] = 4-HPR 9 μM + L-threo-sphinganine 3 μM

SMILES	CI (Combination Index) [1, 5]	Fa (fraction affected) [1, 5]	CI (Combination Index) [1, 6]	Fa (fraction affected) [1, 6]	CI (Combination Index) [1, 7]	Fa (fraction affected) [1, 7]	CI (Combination Index) [1, 8]	Fa (fraction affected) [1, 8]	CI (Combination Index) [2, 5]	Fa (fraction affected) [2, 5]	CI (Combination Index) [2, 6]	Fa (fraction affected) [2, 6]	CI (Combination Index) [2, 7]	Fa (fraction affected) [2, 7]	CI (Combination Index) [2, 8]	Fa (fraction affected) [2, 8]	CI (Combination Index) [3, 5]	Fa (fraction affected) [3, 5]	CI (Combination Index) [3, 6]	Fa (fraction affected) [3, 6]	further results
CCCCCCCCCCCC[C@H](O)[C@@H](N)CO [C15]	1	0.08	>1	0.09	>1	0.06	>1	0.07	>1	0.26	>1	0.39	>1	0.29	>1	0.66	0.5	0.657	1.0	0.701	CI (Combination Index) [3, 7]: 1.2; Fa (fraction affected) [3, 7]: 0.906; CI (Combination Index) [3, 8]: 0.4; Fa (fraction affected) [3, 8]: 0.999
CCCCCCCCCCCCCCC[C@H](O)[C@@H](N)CO [C18, (2S,3S)-2-amino-1,3-octadecanediol, reference compound]	>1	0.20	1	0.11	>1	0.35	>1	0.94	>1	0.16	>1	0.29	>1	0.29	0.33	0.73	0.5	0.604	0.8	0.880	CI (Combination Index) [3, 7]: 1.1; Fa (fraction affected) [3, 7]: 0.984; CI (Combination Index) [3, 8]: 1.5; Fa (fraction affected) [3, 8]: 0.989; CI (Combination Index) [4, 5]: 1.2; Fa (fraction affected) [4, 5]: 0.243; CI (Combination Index) [4, 6]: 0.6; Fa (fraction affected) [4, 6]: 0.756; CI (Combination Index) [4, 7]: 0.9; Fa (fraction affected) [4, 7]: 0.824; CI (Combination Index) [4, 8]: 0.6; Fa (fraction affected) [4, 8]: 0.961
CCCCCCCCC[C@H](O)[C@@H](N)CO [C12]	1	0.17	>1	0.30	>1	0.29	>1	0.30	>1	0.27	0.76	0.44	>1	0.42	>1	0.54	0.6	0.464	0.6	0.788	CI (Combination Index) [3, 7]: 0.7; Fa (fraction affected) [3, 7]: 0.951; CI (Combination Index) [3, 8]: 1.0; Fa (fraction affected) [3, 8]: 0.965; CI (Combination Index) [4, 5]: 1.0; Fa (fraction affected) [4, 5]: 0.217; CI (Combination Index) [4, 6]: 1.0; Fa (fraction affected) [4, 6]: 0.642; CI (Combination Index) [4, 7]: 0.9; Fa (fraction affected) [4, 7]: 0.951; CI (Combination Index) [4, 8]: 1.2; Fa (fraction affected) [4, 8]: 0.975
CCCCCCCCCCC[C@H](O)[C@@H](N)CO [C14]	>1	0.10	>1	0.10	>1	0.12	>1	0.08	>1	0.32	>1	0.40	>1	0.21	>1	0.69	0.6	0.342	0.9	0.739	CI (Combination Index) [3, 7]: 1.1; Fa (fraction affected) [3, 7]: 0.968; CI (Combination Index) [3, 8]: 1.6; Fa (fraction affected) [3, 8]: 0.974
